{"source": "ChEMBL document CHEMBL5647697", "about": "“Akt inhibition synergizes with polycomb repressive complex 2 inhibition in the treatment of multiple myeloma” (2019)", "type_in_all_cases": "functional", "key": {"MM1.S [1]": {"test_system": "MM1.S", "experiment": "Induction of apoptosis in human MM1.S cells assessed as necrotic cells at 5 micromol/L incubated for 48 hrs by annexin V/PI staining based flow cytometry (reference value: 0.17%)", "conditions": "dose 5 µmol/L, at 5 µM"}, "MM1.S [2]": {"test_system": "MM1.S", "experiment": "Induction of apoptosis in human MM1.S cells assessed as late apoptotic cells at 5 micromol/L incubated for 48 hrs by annexin V/PI staining based flow cytometry (reference value: 3.6%)", "conditions": "dose 5 µmol/L, at 5 µM"}, "MM1.S [3]": {"test_system": "MM1.S", "experiment": "Induction of apoptosis in human MM1.S cells assessed as early apoptotic cells at 5 micromol/L incubated for 48 hrs by annexin V/PI staining based flow cytometry (reference value: 8.03%)", "conditions": "dose 5 µmol/L, at 5 µM"}, "MM1.S [4]": {"test_system": "MM1.S", "experiment": "Induction of apoptosis in human MM1.S cells assessed as viable cells at 5 micromol/L incubated for 48 hrs by annexin V/PI staining based flow cytometry (reference value: 88.2%)", "conditions": "dose 5 µmol/L, read-out: Activity"}}}
{"smiles": "CCCc1cc(C)[nH]c(=O)c1CNC(=O)c1cc(-c2ccc(N3CCN(C(C)C)CC3)nc2)cc2c1cnn2C(C)C", "values": [{"measurement": "Activity", "setting": "MM1.S [1]", "value": 0.41, "unit": "%"}, {"measurement": "Activity", "setting": "MM1.S [2]", "value": 15.9, "unit": "%"}, {"measurement": "Activity", "setting": "MM1.S [3]", "value": 18.8, "unit": "%"}, {"measurement": "viability at 5 µM", "setting": "MM1.S [4]", "value": 64.9, "unit": "%"}]}
